The source of these data is patent publication US8822535B2 (priority 2005, dated 2014).

One assay relates to mice. It is filed as in vivo, mouse (C57BL6/J). The procedure:
The same flow rates were used as described above (i.e., […] in a 0.5 L chamber).
Experiments were conducted to test the ability of a mouse in a ‘hibernation-like’ state to survive in conditions where it would normally die. The adverse condition was hypoxia, which the literature states that mice (C57BL6/J males) can live in for a maximum of 20 minutes at 5% Oxygen.
The hypoxic exposure was timed (indicated below) and viability of the mice was determined.

A further assay relates to Drosophila melanogaster. As to the kind of experiment: Anoxia tolerance of Drosophila melanogaster after CO2 / H2S treatment. The class given is in vivo. Conditions: adult flies. How it is done: Adult flies were introduced into 35 mL tubes made of glass with a gas-tight rubber stopper (Balsh tubes). This was usually accomplished by anesthetizing flies with CO2, moving groups of flies to vials with food to recover for at least 2 hours, and then transferring them into the Balsh tube. To exchange the gaseous environment in the Balsh tube, two 18 gauge needles were inserted into the rubber stopper, and gas is blown into one of the needles at 100 mL/min. To prevent dessication, gasses were humidified by bubbling through 10 mL of water before passing it through the Balsch tube. The water in the bubbler is equilibrated with the gas for at least 20 minutes before starting the experiment.
For “stopped-flow” experiments, gas exchange proceeded for 60 minutes before sealing the tube. For “low-flow” experiments, gas flow continued throughout the experiment. CO2 was from the house source (100%), and anoxic environments were established by flushing out room air with 100% nitrogen (N2). Care was taken to prevent introduction of room air into the system while switching the atmosphere from CO2 to N2.
After anoxic treatment, oxygen was reintroduced into the Balsh tube by flushing with house air for 20 minutes. The rubber stopper was then removed and a food vial is inverted over the top of the Balsh tubes with Parafilm. […] Viability was scored at least 18 hours after the end of anoxic treatment. After two weeks, if the food vials contained larvae and/or pupae the flies were considered to be fertile.

Where two headings read alike, the source gives them in different places.

As to `S` [H2S, hydrogen sulfide], the “Time in Hypoxia” value in the assay with mice (ambient 20° C., 5 hrs in 80 ppm H2S prior, 4% oxygen, result life) was 28 min; in the assay with mice (ambient 20° C., 5 hrs in 80 ppm H2S prior, 5.00% oxygen, result life), 60 min; in the assay with mice (ambient 20° C., 5 hrs in 80 ppm H2S prior, 5.20% oxygen, result life) it was 11 min; with mice (ambient 20° C., 5.5 hrs in 80 ppm H2S prior, 5.00% oxygen, result life) it was 25 min; in the assay with mice (ambient 24° C., 80 ppm H2S simultaneous with hypoxia, 5.10% oxygen, result dead), 10 min; with mice (ambient 24° C., 8 minutes in 80 ppm H2S prior, 4.00% oxygen, result dead), 8 min. Further, the “Time in Hypoxia” value amounted to 23 min with mice (ambient 24° C., 8 minutes in 80 ppm H2S prior, 4.50% oxygen, result dead); 20 min in the assay on mice (ambient 24° C., 8 minutes in 80 ppm H2S prior, 5% oxygen, result dead); 50 min in the assay with mice (ambient 24° C., 8 minutes in 80 ppm H2S prior, 5.00% oxygen, result life); 56 min in the assay with mice (ambient 24° C., 10 minutes in 90 ppm H2S prior, 5% oxygen, result dead); 6 min in the assay on mice (ambient 30° C., 8 minutes in 80 ppm H2S prior, 4.50% oxygen, result dead). The “time survived in hypoxia” value in the assay with mice (pre-equilibrated to 80 ppm H2S for 3 hours, 5.2% oxygen, still doing well 3 weeks later) amounted to 11 min. Also, the survival in the assay on Drosophila melanogaster (50 ppm H2S in room air prior to 18.5 h anoxia) came out at 25%; with Drosophila melanogaster (50 ppm H2S present in the CO2 pretreatment and removed as anoxia is established, 20 h) it was 35%; in the assay with Drosophila melanogaster (CO2 10 min, H2S/CO2 10 min, N2/H2S 10 min, then N2, 15 h anoxic exposure, low-flow), 50%.
